Assay results from ChEMBL document CHEMBL1201862, “PubChem BioAssay data set” (2004).
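In this assay, cells in 96-well plates receive the compound at five concentrations for 48 hours. Endpoints are linearly interpolated between the surrounding concentrations. GI50 = concentration required for 50% inhibition of growth.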 Activity calls are given as the source filed them. Cut-off read from the data, not from the text of the source: active = GI50 up to about 1.1 µM and inactive = higher.

Tests used:
Experiment in all cases: NCI tumour cell line growth inhibition, 48 h
[1] = test system: OVCAR-3
[2] = test system: Malme-3M
[3] = test system: OVCAR-5
[4] = test system: UACC-62
[5] = test system: EKVX
[6] = test system: HCC 2998
[7] = test system: U-251
[8] = test system: K562
[9] = test system: DMS-114
[10] = test system: HT-29
[11] = test system: SW-620
[12] = test system: NCI-H522
[13] = test system: SK-OV-3
[14] = test system: HCT-116
[15] = test system: HCT-15
[16] = test system: SNB-75
[17] = test system: A498
[18] = test system: MDA-MB-435
[19] = test system: BT-549
[20] = test system: MDA-N

| Structure (SMILES) | GI50 [1] | GI50 [2] | GI50 [3] | GI50 [4] | GI50 [5] | GI50 [6] | GI50 [7] | GI50 [8] | GI50 [9] | GI50 [10] | GI50 [11] | GI50 [12] | GI50 [13] | GI50 [14] | GI50 [15] [µM] | GI50 [16] | GI50 [17] | GI50 [18] | GI50 [19] | GI50 [20] |
| --- | --- | --- | --- | --- | --- | --- | --- | --- | --- | --- | --- | --- | --- | --- | --- | --- | --- | --- | --- | --- |
| CO[C@H](C(=O)O[C@H]1C(=O)N2CC[C@@H]3CCC[C@H]1C32C)c1ccccc1 (stereo not given in full) | > 100 µM (inactive) | > 100 µM (inactive) | > 100 µM (inactive) | > 100 µM (inactive) | > 100 µM (inactive) | 60.8 µM (inactive) | > 100 µM (inactive) | > 100 µM (inactive) | > 100 µM (inactive) | > 100 µM (inactive) | > 100 µM (inactive) | 66.2 µM (inactive) | > 100 µM (inactive) | > 100 µM (inactive) | > 10 | – | – | – | – | – |
| O=C(/C=C/c1ccc[nH]1)c1ccccc1 | > 100 µM (inactive) | > 100 µM (inactive) | > 100 µM (inactive) | > 100 µM (inactive) | – | – | > 100 µM (inactive) | > 100 µM (inactive) | > 100 µM (inactive) | > 100 µM (inactive) | > 100 µM (inactive) | > 100 µM (inactive) | > 100 µM (inactive) | > 100 µM (inactive) | > 100 | 29.6 µM (inactive) | – | – | – | – |
| Cc1nc(-c2nc(C)c(C(=O)/C=C/c3ccc(N(C)C)cc3)s2)sc1C(=O)/C=C/c1ccc(N(C)C)cc1 | > 100 µM (inactive) | 66.4 µM (inactive) | > 100 µM (inactive) | 18.5 µM (inactive) | > 100 µM (inactive) | > 100 µM (inactive) | > 100 µM (inactive) | 33.4 µM (inactive) | > 100 µM (inactive) | > 10 µM (inactive) | 31.2 µM (inactive) | 31.3 µM (inactive) | > 100 µM (inactive) | 29.3 µM (inactive) | 37.8 | – | – | – | – | – |
| COc1cc(/C=N\c2ccc(C(C)C)cc2)cc(OC)c1OC | > 100 µM (inactive) | > 100 µM (inactive) | > 100 µM (inactive) | > 100 µM (inactive) | > 100 µM (inactive) | – | > 100 µM (inactive) | > 50.4 µM (inactive) | 49.5 µM (inactive) | > 100 µM (inactive) | > 37 µM (inactive) | > 59.7 µM (inactive) | > 100 µM (inactive) | > 100 µM (inactive) | > 55.5 | 98.4 µM (inactive) | > 100 µM (inactive) | – | – | – |
| Cc1cc2c(O)c(c1)COCc1cc(C)cc(c1O)COCc1cc(C)cc(c1O)COC2 | > 100 µM (inactive) | > 100 µM (inactive) | > 100 µM (inactive) | > 100 µM (inactive) | > 100 µM (inactive) | > 100 µM (inactive) | > 100 µM (inactive) | > 100 µM (inactive) | – | 95.3 µM (inactive) | > 100 µM (inactive) | 49.2 µM (inactive) | > 100 µM (inactive) | 32.7 µM (inactive) | > 100 | 80.5 µM (inactive) | > 100 µM (inactive) | > 100 µM (inactive) | > 100 µM (inactive) | > 100 µM (inactive) |
| COC(=O)[C@]12CCC(=O)N1[C@H](C(=O)O)Cc1c2[nH]c2ccccc12 | > 100 µM (inactive) | > 100 µM (inactive) | > 100 µM (inactive) | > 100 µM (inactive) | > 100 µM (inactive) | > 100 µM (inactive) | > 100 µM (inactive) | > 100 µM (inactive) | – | > 100 µM (inactive) | > 100 µM (inactive) | > 100 µM (inactive) | > 100 µM (inactive) | > 100 µM (inactive) | > 100 | > 100 µM (inactive) | > 100 µM (inactive) | > 100 µM (inactive) | > 100 µM (inactive) | > 100 µM (inactive) |
| CCOC(=O)c1cc(/C=C/C(C)=C/C(=O)OC)oc1C | > 100 µM (inactive) | > 100 µM (inactive) | > 100 µM (inactive) | > 100 µM (inactive) | > 100 µM (inactive) | – | > 100 µM (inactive) | > 100 µM (inactive) | > 100 µM (inactive) | > 100 µM (inactive) | > 100 µM (inactive) | 45.6 µM (inactive) | > 100 µM (inactive) | > 100 µM (inactive) | > 100 | > 100 µM (inactive) | – | – | – | – |
| COc1cc(/C=C2\CCC(C)C3C2=NN(C(C)=O)C3c2cc(OC)c(OC)c(OC)c2)cc(OC)c1OC (stereo not given) | > 100 µM (inactive) | 43.6 µM (inactive) | 10.2 µM (inactive) | 38.8 µM (inactive) | > 100 µM (inactive) | > 100 µM (inactive) | > 85.5 µM (inactive) | > 100 µM (inactive) | – | > 100 µM (inactive) | > 100 µM (inactive) | 5.09 µM (inactive) | > 100 µM (inactive) | > 100 µM (inactive) | 99.8 | 15.8 µM (inactive) | > 100 µM (inactive) | > 100 µM (inactive) | > 100 µM (inactive) | > 100 µM (inactive) |
| COC(=N)C12C(N)=NC(OC)(OC)C1(C#N)C21C(=O)N(c2ccccc2)N=C1C (stereo not given) | > 100 µM (inactive) | > 100 µM (inactive) | > 100 µM (inactive) | > 100 µM (inactive) | > 100 µM (inactive) | > 100 µM (inactive) | > 100 µM (inactive) | > 100 µM (inactive) | – | > 100 µM (inactive) | > 100 µM (inactive) | > 100 µM (inactive) | > 100 µM (inactive) | > 100 µM (inactive) | > 100 | > 100 µM (inactive) | > 100 µM (inactive) | > 100 µM (inactive) | > 100 µM (inactive) | > 100 µM (inactive) |
| Cc1cc(=O)oc2cc(OC(=O)N(CCCl)CCCl)ccc12 | > 100 µM (inactive) | > 100 µM (inactive) | > 100 µM (inactive) | 29.4 µM (inactive) | > 100 µM (inactive) | > 100 µM (inactive) | > 100 µM (inactive) | 68.5 µM (inactive) | – | > 100 µM (inactive) | > 100 µM (inactive) | 79.1 µM (inactive) | > 100 µM (inactive) | > 100 µM (inactive) | 77.6 | 50.7 µM (inactive) | > 100 µM (inactive) | > 100 µM (inactive) | 44.7 µM (inactive) | > 100 µM (inactive) |
| O=C(O)CCc1nc2ccccc2[nH]1 [PROCODAZOLE] | > 100 µM (inactive) | > 100 µM (inactive) | > 100 µM (inactive) | > 100 µM (inactive) | > 100 µM (inactive) | > 100 µM (inactive) | > 100 µM (inactive) | > 100 µM (inactive) | – | > 100 µM (inactive) | > 100 µM (inactive) | > 100 µM (inactive) | 0.237 µM (active) | > 100 µM (inactive) | > 100 | > 100 µM (inactive) | > 100 µM (inactive) | > 100 µM (inactive) | > 100 µM (inactive) | > 100 µM (inactive) |
| Brc1cccc(C2SCc3nc4ccccc4n32)c1 (stereo not given) | 15.2 µM (inactive) | 24 µM (inactive) | 6.01 µM (inactive) | 12.9 µM (inactive) | 18.7 µM (inactive) | – | 17 µM (inactive) | 9.98 µM (inactive) | 13.7 µM (inactive) | 20.6 µM (inactive) | 31.8 µM (inactive) | 13.9 µM (inactive) | 21.6 µM (inactive) | 14.5 µM (inactive) | 15.2 | 0.0533 µM (active) | – | – | – | – |
| OC(CC1CCCCN1)c1ccc2c(c1)oc1ccccc12 (stereo not given) | > 100 µM (inactive) | 38.9 µM (inactive) | 50.1 µM (inactive) | 22.6 µM (inactive) | 49 µM (inactive) | 30.4 µM (inactive) | > 100 µM (inactive) | 39.5 µM (inactive) | – | 28.2 µM (inactive) | > 100 µM (inactive) | 79.8 µM (inactive) | > 100 µM (inactive) | 85.3 µM (inactive) | 52.2 | 39.6 µM (inactive) | 23.4 µM (inactive) | 42.7 µM (inactive) | > 100 µM (inactive) | 40.8 µM (inactive) |
| CN(C)c1ccc(/C=C/C(=O)c2cc(C(C)(C)C)c(O)c(C(C)(C)C)c2)cc1 | 0.443 µM (active) | > 100 µM (inactive) | 2.99 µM (inactive) | 0.637 µM (active) | 0.583 µM (active) | 1.64 µM (inactive) | 0.946 µM (active) | 0.979 µM (active) | – | 1.03 µM (active) | 0.986 µM (active) | 0.482 µM (active) | 1.74 µM (inactive) | 1.05 µM (active) | 1.15 | 0.579 µM (active) | 1.91 µM (inactive) | 0.258 µM (active) | 3.64 µM (inactive) | 0.249 µM (active) |
| c1ccc2sc(SCCSc3nc4ccccc4s3)nc2c1 | > 100 µM (inactive) | > 100 µM (inactive) | > 100 µM (inactive) | > 100 µM (inactive) | > 100 µM (inactive) | 20.3 µM (inactive) | > 100 µM (inactive) | > 100 µM (inactive) | – | > 100 µM (inactive) | > 100 µM (inactive) | > 100 µM (inactive) | > 100 µM (inactive) | > 100 µM (inactive) | > 100 | 74.3 µM (inactive) | > 100 µM (inactive) | > 100 µM (inactive) | > 100 µM (inactive) | > 100 µM (inactive) |
| CCn1sc2ccccc2c1=O | 12.9 µM (inactive) | 15.8 µM (inactive) | 9.1 µM (inactive) | 13.9 µM (inactive) | 17.1 µM (inactive) | 17.4 µM (inactive) | 6 µM (inactive) | 4.58 µM (inactive) | – | 14.4 µM (inactive) | 6.35 µM (inactive) | 1.6 µM (inactive) | 36 µM (inactive) | 14.8 µM (inactive) | 7.94 | 13.7 µM (inactive) | 37.8 µM (inactive) | 1.99 µM (inactive) | 11.1 µM (inactive) | 4.05 µM (inactive) |
